{"source": "patent US20030180248A1", "about": "“Cosmetic composition containing the extract of mountain ginseng adventitious roots” (priority 2001, published 2003)", "test_system": "transformed mouse fibroblast L929 cells", "test": "Cytotoxicity, Neutral Red uptake", "format": "cell-based", "conditions": "48 hours", "description": "Extracts from tissue-cultured mountain ginseng adventitious roots, prepared in Examples 1 to 3, were examined for cytotoxicity, in comparison with a red ginseng extract and arbutin, which are conventionally used as skin-whitening materials.\nAfter being recovered by trypsinization, the transformed mouse fibroblast L929 cells were suspended in DMEM supplemented with 2% BCS (bovine calf serum), and the suspension was aliquoted at a concentration of 2,500-3,000 cells/well into each well of 96 well tissue culture plates, followed by incubation at 37° C. for 48 hours in a 5% CO2 atmosphere. After substitution of the medium with a fresh, serum-free one, the cells were treated with the test materials shown in Table 2, below, and cultured for 48 hours. To each well, Neutral Red (50 μg/ml) was added, and reacted with cells for 3 hours. After completion of the accumulation of Neutral Red in live cells, the dye was fixed with the use of 1.0% formalin/1.0% CaCl2. Neutral Red was extracted from cells using 1.0% acetic acid/50% ethanol solution. The extracted Neutral Red was analyzed by ELISA to measure the cytotoxicity of the test materials according to concentrations.", "data": [{"smiles": "OC[C@H]1O[C@@H](Oc2ccc(O)cc2)[C@H](O)[C@@H](O)[C@@H]1O", "note": "[Arbutin]", "values": [{"measurement": "NR50", "setting": "Neutral Red", "value": 0.29, "unit": "w/w %"}, {"measurement": "Cytotoxicity (Neutral Red reading)", "setting": "concentration 0.001 w/w %", "value": 98}, {"measurement": "Cytotoxicity (Neutral Red reading)", "setting": "concentration 0.01 w/w %", "value": 82}, {"measurement": "Cytotoxicity (Neutral Red reading)", "setting": "concentration 0.1 w/w %", "value": 63}, {"measurement": "Cytotoxicity (Neutral Red reading)", "setting": "concentration 1 w/w %", "value": 2}]}]}
